Laboratory results as given in the Bradley open melting point set (2014).
Values joined by “and” are separate entries in the source; they are usually repeats but may differ in a detail not shown here. Equal entries are not always repeated. Structures can show the parent of a compound that is named as a salt.

melting point | Structure (SMILES)
67 °C | CCOC(=O)c1ccc2c(c1)no[n+]2[O-] [ethyl benzofuroxan-5-carboxylate]
59 °C | CCOC(=O)CNC(=O)c1ccccc1 [ethyl hippurate]
-99 °C | CCOC(=O)CC(C)C [ethyl isovalerate]
-25 °C | CCOC(=O)[C@H](C)O [ethyl l-lactate]
112 °C | CCOC(C)=NOc1ccc([N+](=O)[O-])cc1[N+](=O)[O-] [ethyl n-(2,4-dinitrophenoxy)acetimidate]
89 °C | CCOC(=O)c1ccc(N)cc1 [ethyl p-aminobenzoate]
-73 °C | CCOC(=O)CC [ethyl propionate]
1 °C | CCOC(=O)c1ccccc1O [ethyl salicylate]
35 °C | CCCCCCCCCCCCCCCCCC(=O)OCC [ethyl stearate]
-115 °C | C=COCC [ethyl vinyl ether]
-103 °C | CCCCOCC [ethyl_butyl_ether]
-22 °C | CCOC(=O)CC#N [ethyl_cyanoacetate]
68 °C | CCOC(=O)c1ccccc1C#N [ethyl_o-cyanobenzoate]
-73 °C | CCOC(=O)CC [ethyl_propionate]
-95 °C | CCc1ccccc1 [ethylbenzene]
86 °C | CCB(O)O [ethylboronic acid]
116 °C | CCOC(=O)c1ccc(O)cc1 [ethylparaben]
78 °C | CCNc1nsc2ccccc12 [etisazol]
163 °C | NC(N)=Nc1nc(CSCCC(N)=NS(N)(=O)=O)cs1 [famotidine]
186 °C | O=C(O)CCC(=O)c1ccc(-c2ccccc2)cc1 [fenbufen]
4 °C | CC1(C)C(=O)[C@]2(C)CC[C@H]1C2 [fenchone]
53.5 °C | CCOC(=O)NCCOc1ccc(Oc2ccccc2)cc1 [fenoxycarb]

melting point | Structure (SMILES)
134 °C | CN(C)C(=O)Nc1ccccc1 [fenuron]
68 °C | COc1ccccc1N1CCN(CCCC(=O)c2ccc(F)cc2)CC1 [fluanisone]
116 °C | O=C1COC(c2ccc(C(F)(F)F)cc2)CN1 (stereo not given) [flumetramide]
114 °C and 116 °C | c1ccc2c(c1)Cc1ccccc1-2 [fluorene]
8.3 °C and 8.32 °C | O=CO [formic acid]
134 °C | O=C(O)c1ccco1 [furoic acid]
205 °C | O=C(O)c1cc(O)ccc1O [gentisic acid]
97 °C | O=C(O)CCCC(=O)O [glutaric acid]
173 °C | COc1ccc(Cl)cc1C(=O)NCCc1ccc(S(=O)(=O)NC(=O)NC2CCCCC2)cc1 [glybenzcyclamide]
262 °C | NCC(=O)O [glycine]
219 °C | COC1=CC(=O)CC(C)C12Oc1c(Cl)c(OC)cc(OC)c1C2=O (stereo not given) [griseofulvin]
219 °C | COC1=CC(=O)C[C@@H](C)[C@]12Oc1c(Cl)c(OC)cc(OC)c1C2=O [griseofulvin]
32 °C | Cc1ccc(C(C)C)cc2c(C)ccc1-2 [guaiazulene]
149 °C | O=C(CCCN1CCC(O)(c2ccc(Cl)cc2)CC1)c1ccc(F)cc1 [haloperidol] [listing 1 of 2 here]
152 °C | O=C(CCCN1CCC(O)(c2ccc(Cl)cc2)CC1)c1ccc(F)cc1 [haloperidol] [listing 2 of 2 here]
22 °C | CCCCCCCCCCCCCCCCC [heptadecane]
61 °C | CCCCCCCCCCCCCCCCC(=O)O [heptadecanoic acid]
-91 °C and -90.6 °C | CCCCCCC [heptane]
-8 °C | CCCCCCC(=O)O [heptanoic acid]
-6 °C | CCCCCCC(=O)O [heptanoic_acid]
164 °C | Cc1c(C)c(C)c(C)c(C)c1C [hexamethylbenzene] [listing 1 of 2 here]
164 °C and 168 °C | Cc1c(C)c(C)c(C)c(C)c1C [hexamethylbenzene] [listing 2 of 2 here]

melting point | Structure (SMILES)
-78 °C | C[Si](C)(C)N[Si](C)(C)C [hexamethyldisilazane]
-67 °C | C[Si](C)(C)O[Si](C)(C)C [hexamethyldisiloxane]
-56 °C | CCCCCC=O [hexanal]
-56 °C | CCCCCC=O [hexanaldehyde]
-3 °C | CCCCCC(=O)O [hexanoic acid]
-40 °C | CCCCCC(=O)OC(=O)CCCCC [hexanoic anhydride]
-3 °C | CCCCCC(=O)O [hexanoic_acid]
101 °C | CCN(CC)CCNc1ccc(CO)c2sc3ccccc3c(=O)c12 [hycanthone]
272 °C | NS(=O)(=O)c1cc2c(cc1C(F)(F)F)NCNS2(=O)=O [hydroflumethiazide]
-17 °C | CC(=O)CO [hydroxyacetone]
106 °C | N#Cc1ccc2[nH]ccc2c1 [indole-5-carbonitrile]
96 °C | CCOC(=O)Cc1c(C)n(C(=O)c2ccc(Cl)cc2)c2ccc(OC)cc12 [indomethacin ethyl ester]
159 °C and 160 °C | COc1ccc2c(c1)c(CC(=O)O)c(C)n2C(=O)c1ccc(Cl)cc1 [indomethacin] [listing 1 of 2 here]
160 °C | COc1ccc2c(c1)c(CC(=O)O)c(C)n2C(=O)c1ccc(Cl)cc1 [indomethacin] [listing 2 of 2 here]
61 °C | CC(C)c1ncc([N+](=O)[O-])n1C [ipronidazole]
-80 °C | CC(C)COC(=O)C(C)C [isobutyl_isobutyrate]
-8 °C | CC1=CC(=O)CC(C)(C)C1 [isophorone]
89 °C | O=Cc1cccc(C=O)c1 [isophthalaldehyde]
-93 °C | CC(C)OC=O [isopropyl formate]
112 °C | CC(C)S[C@@H]1O[C@H](CO)[C@H](O)[C@H](O)[C@H]1O [isopropyl-beta-d-thiogalactoside]
146 °C | CC(=O)N1CCN(c2ccc(OC[C@H]3CO[C@](Cn4ccnc4)(c4ccc(Cl)cc4Cl)O3)cc2)CC1 [ketoconazol]
277 °C | N[C@@H](Cc1ccc(O)c(O)c1)C(=O)O [l-dopa]

melting point | Structure (SMILES)
142 °C | CCOC(=O)CSCCC1NC(C(=O)O)CS1 (stereo not given) [letosteine]
159 °C | Cc1cccc(C)c1NC(=O)CN1CCN(CCCC(c2ccc(F)cc2)c2ccc(F)cc2)CC1 [lidoflazine]
126 °C | CC(Oc1c(Cl)cccc1Cl)C1=NCCN1 (stereo not given) [lofexidine]
240 °C | CCn1cc(C(=O)O)c(=O)c2cc(F)c(N3CCNC(C)C3)c(F)c21 (stereo not given) [lomefloxacin]
238 °C | Clc1ccc(-c2nc3c4ccccc4ccn3n2)cc1 [lotrifen]
95 °C | Nc1cccc(CO)c1 [m-amino_benzyl_alcohol]
17 °C | Nc1cccc(Br)c1 [m-bromoaniline]
49 °C | N#Cc1cccc(-c2ccccc2)c1 [m-cyanobiphenyl]
36 °C | CC(=O)c1cccc(C(C)=O)c1 [m-diacetylbenzene]
53 °C | N#CCc1cccc(O)c1 [m-hydroxy_phenylacetonitrile]
115 °C | O=C(O)c1cccc(CO)c1 [m-hydroxymethyl_benzoic_acid]
28 °C | N#Cc1cccc(CO)c1 [m-hydroxymethyl_benzonitrile]
25 °C | Nc1cccc(I)c1 [m-iodoaniline]
119 °C | O=C(O)Cc1cccc([N+](=O)[O-])c1 [m-nitro_phenylacetic_acid]
96 °C | Cc1cccc(C(N)=O)c1 [m-toluamide]
54 °C | O=C1C=CC(=O)O1 [maleic anhydride]
230 °C | Cc1cccc(Nc2ccccc2C(=O)O)c1C [mefenamic acid]
224 °C | C=C1CC2C3C=C(C)C4=CC(=O)CCC4(C)C3CCC2(C)C1(OC(C)=O)C(C)=O (stereo not given) [melengestrolacetate]
152 °C | O=C(O)CC(S)C(=O)O (stereo not given) [mercaptosuccinic acid]
100 °C | CC(C)NCC(O)c1cc(O)cc(O)c1 (stereo not given) [metaproterenol]

Structure (SMILES) | melting point
CCOC(=O)c1ccccc1N [ethyl_2-aminobenzoate] | 14 °C
C=CC(=O)OCC [ethyl_acrylate] | -71 °C
CCOS(=O)(=O)c1ccc(C)cc1 [ethyl_p-toluenesulfonate] | 34 °C
CCOC(=O)c1cncn1C(C)c1ccccc1 (stereo not given) [etomidate] | 67 °C
O=C1OC(=O)[C@H]2[C@@H]1[C@@H]1C=C[C@H]2O1 [exo-7-oxabicyclo[2.2.1]hept-5-ene-2,3-dicarboxylic anhydride] | 119 °C
N#CC(CCc1ccc(Cl)cc1)(Cn1cncn1)c1ccccc1 (stereo not given) [fenbuconazole] | 125 °C
C(=C/C#N)C#N [fumaronitrile] | 97 °C
OCc1ccco1 [furfuryl alcohol] | -31 °C
N#CCCCC#N [glutaronitrile] | -29 °C
COc1ccc2c(c1)[nH]c1c(C)nccc12 [harmine] | 264 °C
CCC1(C2=CCCCCC2)C(=O)NC(=O)NC1=O [heptabarbital] | 175 °C
CCCCCCC#N [heptanenitrile] | -64 °C
ClC(Cl)=C(Cl)C(Cl)=C(Cl)Cl [hexachloro-1,3-butadiene] | -21 °C
ClC(Cl)(Cl)C(Cl)(Cl)Cl [hexachloroethane] | 192 °C
CCCCCCC#N [hexyl_cyanide] | -63 °C
O=C(O)CI [iodoacetic acid] | 81 °C
CCI [iodoethane] | -108 °C
CI [iodomethane] | -66 °C
ClC1C(Cl)C(Cl)C(Cl)C(Cl)C1Cl (stereo not given) [lindane] | 114 °C
Cl[C@H]1[C@H](Cl)[C@@H](Cl)[C@@H](Cl)[C@H](Cl)[C@H]1Cl [lindane] | 113 °C and 112 °C
Oc1cccc(Cl)c1 [m-chlorophenol] | 34 °C
Cc1cccc([N+](=O)[O-])c1 [m-nitrotoluene] | 16 °C
Cc1cccc(C)c1 [m-xylene] | -47 °C
ClCc1cccc(CCl)c1 [m-xylylene dichloride] | 35 °C
N#CCC#N [malononitrile] | 34 °C
CCC1(c2ccccc2)C(=O)NC(=O)N(C)C1=O (stereo not given) [mephobarbital] | 176 °C
Cc1cc(C)cc(C)c1 [mesitylene] | -45 °C
COCC(=O)N(c1c(C)cccc1C)C(C)C(=O)OC (stereo not given) [metalaxyl] | 72 °C
C=C(C)C=O [methacrolein] | -81 °C
